The subject of data set [1] is HCMV. Kind of data set: Plaque-reduction assay for HCMV. The format is cell-based, human cytomegalovirus. The following applies: Human betaherpesvirus 5, HFF cells. As for the experimental part: Plaque-Reduction Assays for HSV-1, HSV-2, VZV and HCMV:
Monolayers of cells were prepared in six-well plates and incubated at to allow the cells to reach confluency. Media was then aspirated from the wells and of virus was added to each of three wells to yield 20-30 plaques in each well. The virus was allowed to adsorb to the cells for 1 h and the plates were rocked gently every 15 min to redistribute the media. Compounds were diluted in maintenance cell culture media consisting of MEM with Earl's salts supplemented with 2% FBS, L-glutamine, penicillin, and gentamycin. Solutions were added to duplicate wells and the plates were incubated for various times, depending on the virus used. The plaque-reduction assay with HSV-1 strain F was performed in a similar manner but with Vero cells infected one day after plating. For HSV-1 and -2, the monolayers were stained with 1% crystal violet in 20% methanol and the unbound dye removed by washing with dH2O. For assays with HCMV and VZV, the cell monolayer was stained with 1% Neutral Red solution for 4 h then the stain was aspirated and the cells were washed with PBS. For all assays, plaques were enumerated using a stereomicroscope and the concentration of compound that reduced plaque formation by 50% (EC50) was interpolated from the experimental data. […]
Background: Plaque reduction counts the foci of infection that form in a cell layer.

Data set [2] is described as follows: CytoTox-1 cytotoxicity assay in Huh 7 cells. Type of data set: cell-based. As to conditions: human, parallel to HCV assay. How it is done:
Luciferase reporter (Replicon)/CytoTox-1 (Toxicity). Compounds were screened for anti-HCV activity using a luciferase (Luc) reporter gene endpoint in the HCV primary assay. The Luc reporter was used as an indirect measure of HCV replication as its activity is directly proportional to HCV RNA levels. Assessment of cytotoxicity is conducted in parallel. Drug stocks were prepared in DMSO unless otherwise specified and were diluted with tissue culture medium to the desired high-test concentration. For each assay, the compounds were then further diluted in tissue culture medium as required. After incubation, the cells were processed to derive, where applicable, EC50 and EC90 (compound concentration reducing replicon replication by 50% and 90% respectively). […] Anti-HCV activity was assessed with the replicon (genotype 1b or 2a) or HCVcc virus-derived Luc activity as readout; whereas the cytotoxic concentrations of drug reducing cell numbers was assessed by the CytoTox-1 cell proliferation assay according to manufacturer's protocol. […]
Luciferase reporter (Replicon)/CytoTox-1 (Toxicity). […] Anti-HCV activity was assessed with the replicon (genotype 1b or 2a) or HCVcc virus-derived Luc activity as readout; whereas the cytotoxic concentrations of drug reducing cell numbers was assessed by the CytoTox-1 cell proliferation assay (Promega, Madison, Wis.) according to manufacturer's protocol. […]

One may read the EC50 as the concentration needed to bring the measured effect to its halfway point. By CC50 is commonly meant the concentration giving 50% cytotoxicity. Higher therefore signals lower toxicity to the cells. For the compound `Cc1nc(N)c2c(C(N)=O)cn([C@@H]3O[C@H](CO)[C@@H](O)[C@H]3O)c2n1` [Compound 1, 4-amino-7-((2R,3R,4S,5R)-3,4-dihydroxy-5-(hydroxymethyl)tetrahydrofuran-2-yl)-2-methyl-7H-pyrrolo[2,3-d]pyrimidine-5-carboxamide], in data set [1], the 50% effective concentration (EC50) is > 60 µM. Further, the 50% cytotoxic concentration (CC50) in data set [2] is > 20 µM.

Values taken from patent publication US9708359B2, “Pyrrolopyrimidine nucleosides and analogs thereof” (Chimerix, Inc., priority 2015, dated 2017).
